32 compounds from patent publication US4540697A, “Aminopropanol derivatives of 2-hydroxy-β-phenyl-propiophenones, pharmaceutical compositions and use” (priority 1984, dated 1985) can be followed below.

Where a name gives a salt, the structure may show the parent alone.

The test system of one experiment is aconitine arrhythmia in rats. Nature of the experiment: Antiarrhythmic action on aconitine arrhythmia in rats. Type of experiment: in vivo, rat (strain: Sprague Dawley). To be noted: Rattus norvegicus, iv, 1 h, intravenous administration (footnote 2), aconitine infused 60 minutes after substance, read-out: ED 50%: dose which causes a 50% extension in the period of aconitine infusion. How it is done:
Moreover, the novel compounds were administered orally or intravenously to male rats (strain: Sprague Dawley, weight: 200-230 g) to determine the antiarrhythmic activity. 45 minutes later, the animals were anesthetized by intraperitoneal administration of 100 mg/kg of thiobutabarbital sodium. Aconitine served as the arrhythmogenic substance, and was infused intravenously at a dosage rate of 0.005 mg/kg/minute 60 minutes after administration of the substance. In untreated animals (n=52), arrhythmias appeared in the ECG after 2.74±0.07 minutes. These arrhythmias can be delayed by antiarrhythmic drugs, as a function of the dose.
The dose which extends the infusion period by 50% (ED 50%) was determined from the linear relationship between the logarithm of the dose (mg/kg) of the trial substance and the relative extension of the period of aconitine infusion (Δ%).
(§1) The known antiarrhythmic drug propafenone [2-(2-hydroxy-3-propylamino-propoxy)-3-phenyl-propiophenone hydrochloride]was used as the comparative substance.
On to `CCCNCC(O)COc1ccc(O)cc1C(=O)CCc1ccccc1` (stereo not drawn) [Example 71, 2-(2'-Hydroxy-3'-n-propylamino-propoxy)-5-hydroxy-β-phenyl-propiophenone hydrochloride], for which the ED50 was 0.51 mg/kg.

The same experiment, now with this note: Rattus norvegicus, po, 1 h, peroral administration, aconitine infused 60 minutes after substance, read-out: ED 50%: dose which causes a 50% extension in the period of aconitine infusion.
In the case of `COCC(C)NCC(O)COc1ccc(C)cc1C(=O)CCc1ccc(N(C)C)cc1` (stereo not drawn) [Example 69, 2-[2'-Hydroxy-3'-(3-methoxy-prop-2-ylamino)-propoxy]-5-methyl-β-(4-dimethylaminophenyl)-propiophenone hydrochloride], the ED50 came to 31.6 mg/kg.

In the case of `CC(CCO)NCC(O)COc1ccccc1C(=O)CCc1ccccc1` (stereo not drawn) [Example 1, 2-[2'-Hydroxy-3'-(4-hydroxybut-2-ylamino)-propoxy]-β-phenyl-propiophenone hydrochloride], the ED50 was 15 mg/kg.

Take `COCC(C)NCC(O)COc1ccccc1C(=O)CCc1ccccc1` (stereo not drawn) [Example 2, 2-[2'-Hydroxy-3'-(3-methoxyprop-2-ylamino)-propoxy]-β-phenyl-propiophenone hydrochloride]: the ED50 was 46.4 mg/kg.

For the compound `O=C(CCc1ccccc1)c1ccccc1OCC(O)CN1CCC(O)(c2ccccc2)CC1` (stereo not drawn) [Example 24, 2-[2'-Hydroxy-3'-(4-hydroxy-4-phenyl-piperidino)-propoxy]-β-phenyl-propiophenone hydrochloride], the ED50 was found to be 25.4 mg/kg.

With `CCCNCC(O)COc1ccccc1C(=O)CCc1ccc(N(CC)CC)cc1` (stereo not drawn) [Example 61, 2-(2'-Hydroxy-3'-n-propylamino-propoxy)-β-(4-diethylaminophenyl)-propiophenone hydrochloride], the ED50 turned out to be 1.9 mg/kg.

Take `O=C(CCc1ccccc1)c1ccccc1OCC(O)CNC1CCCCC1` (stereo not drawn) [Example 4, 2-(2'-Hydroxy-3'-cyclohexylamino-propoxy)-β-phenylpropiophenone hydrochloride]: the ED50 came out at 46.4 mg/kg.

`CN(C)CCNCC(O)COc1ccccc1C(=O)CCc1ccccc1` (stereo not drawn) [Example 16, 2-[2'-Hydroxy-3'-(2-dimethylaminoethylamino)-propoxy]-β-phenyl-propiophenone bis-hydrochloride]: the ED50 stood at 29 mg/kg.

As for `CC(C)N(CC(O)COc1ccc(Cl)cc1C(=O)CCc1ccc(N(C)C)cc1)C(C)C` (stereo not drawn) [Example 66, 2-[2'-Hydroxy-3'-(N,N-diisopropylamino)-propoxy]-5-chloro-β-(4-dimethylaminophenyl)-propiophenone hydrochloride], the ED50 came to 21.5 mg/kg.

With `CC(C)(O)CCNCC(O)COc1ccccc1C(=O)CCc1ccccc1` (stereo not drawn) [Example 8, 2-[2'-Hydroxy-3'-(3-hydroxy-3-methyl-butylamino)-propoxy]-β-phenyl-propiophenone hydrochloride], the ED50 stood at 21 mg/kg.

As for `CCCNCC(O)COc1ccccc1C(=O)CCc1ccc(OC)c(OC)c1` (stereo not drawn) [Example 36, 2-(2'-Hydroxy-3'-n-propylamino-propoxy)-β-(3,4-dimethoxyphenyl)-propiophenone hydrochloride], the ED50 was 6.92 mg/kg.

With `COCC(C)NCC(O)COc1ccc(Cl)cc1C(=O)CCc1ccccc1` (stereo not drawn) [Example 38, 2-[2'-Hydroxy-3'-(3-methoxy-prop-2-ylamino)-propoxy]-5-chloro-β-phenyl-propiophenone hydrochloride], the ED50 is 21.5 mg/kg.

As for `O=C(CCc1ccccc1)c1cc(Cl)ccc1OCC(O)CN1CCCCC1` (stereo not drawn) [Example 40, 2-(2'-Hydroxy-3'-piperidino-propoxy)-5-chloro-β-phenyl-propiophenone], the ED50 worked out at 46.4 mg/kg.

In the case of `CCCNCC(O)COc1ccc(Cl)cc1C(=O)CCc1ccc(N(C)C)cc1` (stereo not drawn) [Example 62, 2-(2'-Hydroxy-3'-n-propylamino-propoxy)-5-chloro-β-(4-dimethylaminophenyl)-propiophenone hydrochloride], the ED50 amounted to 21.5 mg/kg.

Turning to `CC(C)NCC(O)COc1ccccc1C(=O)CCc1ccc(N(C)C)cc1` (stereo not drawn) [Example 56, 2-(2'-Hydroxy-3'-isopropylamino-propoxy)-β-(4-dimethylaminophenyl)-propiophenone hydrochloride], the ED50 was 3.4 mg/kg.

As for `Cc1ccc(OCC(O)CN2CCN(C)CC2)c(C(=O)CCc2ccc(N(C)C)cc2)c1` (stereo not drawn) [Example 68, 2-[2'-Hydroxy-3'-(4-methyl-piperazin-1-yl)-propoxy]-5-methyl-β-(4-dimethylaminophenyl)-propiophenone hydrochloride], the ED50 is 46.4 mg/kg.

As to `CCCNCC(O)COc1ccc(C)cc1C(=O)CCc1ccc(N(C)C)cc1` (stereo not drawn) [Example 63, 2-(2'-Hydroxy-3'-n-propylamino-propoxy)-5-methyl-β-(4-dimethylaminophenyl)-propiophenone hydrochloride], the ED50 was 3.03 mg/kg.

Consider `CCCNCC(O)COc1ccc(Cl)cc1C(=O)CCc1ccccc1` (stereo not drawn) [Example 37, 2-(2'-Hydroxy-3'-n-propylamino-propoxy)-5-chloro-β-phenyl-propiophenone hydrochloride], for which the ED50 turned out to be 46.4 mg/kg.

Staying with this experiment, now noted: peroral administration, aconitine infused 60 minutes after substance.
In the case of “2-[2'-Hydroxy-3'-(2-hydroxyethylamino)-propoxy]-β-(dimethylaminophenyl)-propiophenone hydrogen oxalate [Example 59]”, the “ED 50%: dose which causes a 50% extension in the period of aconitine infusion” value stood at 21.5 mg/kg.

Another experiment deals with isolated left atrium of male guineapigs. Kind of experiment: Antiarrhythmic action on the isolated guineapig atrium (drop in maximum rhythmicity). To be noted: Cavia porcellus, Tyrode's solution pH 7.4, 32° C., read-out: Maximum rhythmicity (ED 50%): concentration which causes a 50% drop in the maximum rhythmicity. Further details: species or system guineapig (strain: Pirbright white). How it is done:
The antiarrhythmic activity of the compounds according to the invention was determined on the isolated left atrium of male guineapigs (strain: Pirbright white, weight: 350 to 450 g).
Atria suspended in an organ bath (volume: 125 ml) with carbogen-saturated Tyrode's solution (pH 7.4, 32° C.) were pre-loaded with 1.0 g and subjected to square-wave pulses having a base rhythm of 1 Hz and twice the excitation threshold (rheobase: 0.2-1.4 V, chronaxia: 0.3-0.5 msec).
The frequency (Hz) up to which contraction follows each stimulus (maximum rhythmicity, MR) was determined, by automatically and continuously increasing the frequency, as a criterion of the antiarrhythmic activity. The concentration which causes a drop in the maximum rhythmicity of 50% (EC 50%) was calculated from the linear relationship between the logarithm of the concentration (mg/l) and the relative drop in the maximum rhythmicity (%).
as §1
As to `CC(CCO)NCC(O)COc1ccccc1C(=O)CCc1ccccc1` (stereo not drawn) [Example 1, 2-[2'-Hydroxy-3'-(4-hydroxybut-2-ylamino)-propoxy]-β-phenyl-propiophenone hydrochloride], the EC50 worked out at 1.9 µg/mL.

`COCC(C)NCC(O)COc1ccccc1C(=O)CCc1ccccc1` (stereo not drawn) [Example 2, 2-[2'-Hydroxy-3'-(3-methoxyprop-2-ylamino)-propoxy]-β-phenyl-propiophenone hydrochloride]: the EC50 was determined as 0.874 µg/mL.

As for `C#CC(C)NCC(O)COc1ccccc1C(=O)CCc1ccccc1` (stereo not drawn) [Example 6, 2-[2'-Hydroxy-3'-(1-butyn-3-ylamino)-propoxy]-β-phenyl-propiophenone hydrochloride], the EC50 amounted to 1.71 µg/mL.

In the case of `O=C(CCc1ccccc1)c1ccccc1OCC(O)CN1CCC(O)(c2ccccc2)CC1` (stereo not drawn) [Example 24, 2-[2'-Hydroxy-3'-(4-hydroxy-4-phenyl-piperidino)-propoxy]-β-phenyl-propiophenone hydrochloride], the EC50 was 2.65 µg/mL.

`O=C(CCc1ccccc1)c1ccccc1OCC(O)CN1CCC(c2ccccc2)C1` (stereo not drawn) [Example 22, 2-[2'-Hydroxy-3'-(3-phenyl-pyrrolidino)-propoxy]-β-phenyl-propiophenone hydrochloride]: the EC50 was 1.21 µg/mL.

For the compound `CC(CNCC(O)COc1ccccc1C(=O)CCc1ccccc1)c1ccccc1` (stereo not drawn) [Example 12, 2-[2'-Hydroxy-3'-(2-phenylpropylamino)-propoxy]-β-phenyl-propiophenone hydrochloride], the EC50 was 1.25 µg/mL.

Consider `COc1ccc(CCN(C)CC(O)COc2ccccc2C(=O)CCc2ccccc2)cc1OC` (stereo not drawn) [Example 15, 2-[2'-Hydroxy-3'-[N-methyl-N-(2-(3,4-dimethoxyphenyl)ethylamino)]-propoxy]-β-phenyl-propiophenone hydrochloride], for which the EC50 amounted to 0.728 µg/mL.

As to `CCCNCC(O)COc1ccccc1C(=O)CCc1ccccc1` (stereo not drawn) [Propafenone, 2-(2'-hydroxy-3'-n-propylamino-propoxy)-β-phenyl-propiophenone hydrochloride, reference compound], the EC50 was determined as 2.02 µg/mL.

With `CC(C)N(CC(O)COc1ccccc1C(=O)CCc1ccc(N(C)C)cc1)C(C)C` (stereo not drawn) [Example 64, 2-[2'-Hydroxy-3'-(N,N-diisopropylamino)-propoxy]-β-(4-dimethylaminophenyl)-propiophenone hydrochloride], the EC50 was determined as 1.36 µg/mL.

Consider `COc1ccc(CCNCC(O)COc2ccccc2C(=O)CCc2ccccc2)cc1OC` (stereo not drawn) [Example 14, 2-[2'-Hydroxy-3'-(2-(3,4-dimethoxyphenyl)-ethylamino)propoxy]-β-phenyl-propiophenone hydrochloride], for which the EC50 was determined as 2.17 µg/mL.

`CCCNCC(O)COc1ccccc1C(=O)CCc1ccccc1OC` (stereo not drawn) [Example 29, 2-(2'-Hydroxy-3'-n-propylamino-propoxy)-β-(2-methoxyphenyl)-propiophenone hydrochloride]: the EC50 came out at 1.71 µg/mL.

In the case of `C#CC(C)(C)NCC(O)COc1ccccc1C(=O)CCc1ccccc1` (stereo not drawn) [Example 7, 2-[2'-Hydroxy-3'-(3-methyl-1-butyn-3-ylamino)-propoxy]-β-phenyl-propiophenone hydrochloride], the EC50 is 1.66 µg/mL.

Take `CN(C)CC(O)COc1ccccc1C(=O)CCc1ccccc1` (stereo not drawn) [Example 18, 2-[2'-Hydroxy-3'-(N,N-dimethylamino)-propoxy]-β-phenyl-propiophenone hydrochloride]: the EC50 was found to be 1.3 µg/mL.

As to `CCCN(CCC)CC(O)COc1ccc(C)cc1C(=O)CCc1ccc(Cl)cc1` (stereo not drawn) [Example 46, 2-(2'-Hydroxy-3'-di-n-propylamino-propoxy)-5-methyl-β-(4-chlorophenyl)-propiophenone hydrochloride], the EC50 worked out at 0.778 µg/mL.

Regarding `CCCNCC(O)COc1ccc(C)cc1C(=O)CCc1ccc(OC)c(OC)c1` (stereo not drawn) [Example 48, 2-(2'-Hydroxy-3'-n-propylamino-propoxy)-5-methyl-β-(3,4-dimethoxyphenyl)-propiophenone hydrochloride], the EC50 was 0.923 µg/mL.

`CCCN(CCC)CC(O)COc1ccc(Cl)cc1C(=O)CCc1ccc(F)cc1` (stereo not drawn) [Example 47, 2-(2'-Hydroxy-3'-di-n-propylamino-propoxy)-5-chloro-β-(p-fluorophenyl)-propiophenone hydrochloride]: the EC50 turned out to be 1.45 µg/mL.
